How the values were obtained:
[1] = test system: 281 bp ARF promoter fragment; assay: Transactivation of ARF promoter-luciferase reporter in NIH-3T3 cells; assay type: cell-based, mouse; details: NIH-3T3, 281 bp ARF promoter fragment-luciferase
Experimental: Transactivation assays. NIH-3T3 cells were transfected with 4 μg of pGL2-ARFpro BamHI or its DMP1 binding site mutant, with or without increasing amount of pFLEX-DMP1, pEVRFO-Ets1, pCMV-Ets2, pRcRSV-Elfl, pdEB-Fli1, p(IEB-EWS-Fli1 or pCMV-E2F-1 (89-437), and 4 μg β-actin SEAP control vectors [Inoue and Sherr, Mol. Cell. Biol. 18: 1590-1600 (1998); Inoue et al., J. Biol. Chem. 273:29188-29194 (1998); Davis and Roussel, Gene 171:265-269 (1996); Baily et al., Mol. Cell. Biol. 14:3230-3241 (1994)]. Transfections and normalization of luciferase levels with internal control SEAP levels were performed as described [Inoue and Sherr, Mol. Cell. Biol. 18:1590-1600 (1998)].
Similarly, DMP1 deletion mutants defective in transactivation [Inoue and Sherr, Mol. Cell. […] Mutation of the DMP1 binding site within the ARF promoter [changing CCCGGATGC, (SEQ ID NO:33) to CCCGTCGAC, (SEQ ID NO:42)] also completely abolished transactivation by wild-type DMP1 (FIG. 14C, mutant reporter). Therefore, sequences within the −189 to −181 ARF promoter segment were the only ones responsible for DMP1-mediated transactivation. Although Ets1 could bind to a 23 base pair oligonucleotide containing the DMP1 consensus site (FIG. 14B), several Ets proteins were unable to induce significant reporter gene expression from the more complex 281 base pair ARF promoter (FIG. 14C). […]

recombinant DMP1 = target: T1, recombinant DMP1 (Mus musculus, UniProt Q8CE22); assay: EMSA competition, recombinant DMP1 and 281 base pair ARF promoter fragment; assay type: binding; details: 200-fold excess of unlabelled oligonucleotide
T1 construct: made in house; host or cells: Sf9 insect cells, pAcYM1 baculovirus vector; used as crude lysate (~4 ng DMP1 per reaction)
T1 sequence (Q8CE22 1-761): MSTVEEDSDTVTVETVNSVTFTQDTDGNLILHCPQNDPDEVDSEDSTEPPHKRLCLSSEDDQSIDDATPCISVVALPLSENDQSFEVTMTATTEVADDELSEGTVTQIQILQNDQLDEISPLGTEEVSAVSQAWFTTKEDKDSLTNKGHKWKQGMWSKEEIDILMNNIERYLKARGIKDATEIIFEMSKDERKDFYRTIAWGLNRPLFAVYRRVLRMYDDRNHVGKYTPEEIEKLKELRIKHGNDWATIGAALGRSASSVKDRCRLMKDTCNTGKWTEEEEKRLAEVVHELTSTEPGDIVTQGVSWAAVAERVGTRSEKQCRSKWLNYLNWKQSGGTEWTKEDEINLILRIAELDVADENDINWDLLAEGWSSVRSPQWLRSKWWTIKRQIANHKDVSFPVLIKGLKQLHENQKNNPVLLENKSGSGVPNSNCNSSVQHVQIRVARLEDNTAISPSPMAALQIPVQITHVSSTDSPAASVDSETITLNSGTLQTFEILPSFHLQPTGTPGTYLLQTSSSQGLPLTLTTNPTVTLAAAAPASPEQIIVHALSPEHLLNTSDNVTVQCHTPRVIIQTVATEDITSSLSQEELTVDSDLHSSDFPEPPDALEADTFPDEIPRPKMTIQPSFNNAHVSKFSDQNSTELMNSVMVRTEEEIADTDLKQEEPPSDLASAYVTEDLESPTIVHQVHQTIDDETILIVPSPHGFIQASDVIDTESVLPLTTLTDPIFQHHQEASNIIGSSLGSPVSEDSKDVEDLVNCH
Experimental: Electrophoretic mobility shift assay (EMSA). Recombinant DMP1 protein was prepared in Sf9 cells [Hirai and Sherr, Mol. Cell. Biol. 16:6457-6467 (1996)]. Purified bacterial proteins representing the Ets1 DNA binding domain or full-length Ets1 [Inoue, et al., J. Biol. Chem. 273:29188-29194 (1998)] were used. EMSAs were performed [Inoue and Sherr, Mol. Cell. Biol. 18:1590-1600 (1998)] using either a 281-bp genomic fragment (−225 to +56) or double-stranded oligonucleotides containing the DMP1/Ets site obtained by annealing oligonucleotide 5′-[…]-3′ (sense strand SEQ ID NO:41); DMP1/Ets consensus sequence underlined) with a complementary antisense strand. For competition experiments, a 200-fold excess of unlabelled oligonucleotides was added to reaction mixtures before the probe. To verify the identity of the proteins in shifted complexes, reaction mixtures were incubated with control nonimmune rabbit serum (NRS), serum AF [Hirai and Sherr, Mol. Cell. Biol. 16:6457-6467 (1996)] and M-10 (both to DMP1 carboxylterminal epitopes), S-19 (DMP1 N-terminus), or C-20 (Ets1 C-terminus) before electrophoresis. M-10, S-19, and C-20 were from Santa Cruz Biotechnology.
The nucleotide sequence of the proximal promoter region of the murine ARF gene relative to the transcription initiation site as defined by S1 mapping analysis was determined (FIG. 13). […]

competition for DMP1 binding to the 281 base pair ARF promoter fragment (recombinant DMP1) | Substance | ARF promoter reporter gene expression [1]
 | DMP1: murine cyclin D-associated myb-like transcription factor, 761 amino acids, SEQ ID NO:1 | enhanced reporter gene expression
did not compete | M3: DMP1 deletion mutant (NcoI), amino acids 1-458 of SEQ ID NO:1 | 

Source: patent US6673902B2, “Cyclin D binding factor, and uses thereof” (St. Jude Children's Research Hospital, priority 1996, dated 2004)
